Data on one substance can be found in US9549902B2, “Transdermal patch” (BOUTY S.P.A., priority 2005, dated 2017).

Data set [1] in a line: In vitro nitroglycerin permeation across mouse skin in Franz diffusion cells. It counts as in vitro ADME. As to the method: (§1) With the purpose of analysing the effect of sorbitan monooleate on nitroglycerin permeation kinetics, permeation of nitroglycerin from transdermal patches containing different concentrations of sorbitan monooleate was measured across mouse skin and human skin in Franz diffusion cells (produced by Hanson-Research).
(§2) The test was undertaken as described in the Italian Official Pharmacopoeia XI ed. and the European Pharmacopoeia 4th ed.
The permeation studies were conducted using Franz diffusion cells modified with an aperture 15 mm in diameter (membrane surface area 1.766 cm^2) and 7 ml cell volume. A phosphate buffer at pH 7 maintained under constant agitation was used as receptor fluid within the cell. […]
Within an hour of removal from the animal the skin samples were placed over the aperture of the cells to form a membrane and the transdermal patches to be analysed were each placed over a membrane and fastened with clips.
At determined intervals 300 μl of receptor solution were withdrawn and replaced each time with an equivalent volume of phosphate buffer.
The quantity of nitroglycerin in each sample was determined by means of HPLC analysis, using a 50:50 methanol/water mixture as mobile phase.
The results obtained for each patch were analyzed statistically using the t-test for independent samples. […]

Data set [2] can be described thus: In vitro nitroglycerin permeation across human skin (SCE membranes) in Franz diffusion cells. It counts as in vitro ADME. As to the method: as §1, §2
Samples of abdominal skin were obtained from the same donor by means of a surgical procedure.
Membranes consisting of the stratum corneum and epidermis (SCE membranes) were prepared by immersing the skin into distilled water at 60° C.±1° C. for one minute followed by their removal from the dermis. The membranes were dried in a dryer at about 25% ambient humidity, wrapped in aluminium sheets and maintained at a temperature of about −20° C.±1° C. until required. Dried membrane samples were rehydrated at ambient temperature by immersing in a saline solution for 16 hours. […]
The results obtained were analysed statistically using the t-test for independent samples.
The steady-state flux was then determined for each patch by linear regression of the cumulative quantity of drug permeated across the skin (μg/cm^2) as a function of time (h). […]

sorbitan monooleate: the “Action as absorption enhancer” value in data set [1] and in data set [2] was “does not act as an absorption enhancer” in each case.
